Measurements as given in publication PMC2904774 (PLoS Pathogens, 2010).

Biological target: T1, NUE (CT737), GST-NUE (Chlamydia trachomatis, UniProt O84742)
T1 construct: gene CT_737
Settings: core histones or recombinant H2B, H3, H4 as acceptor, also automethylation; 50 mM Tris pH 8, 20 mM KCl, 10 mM MgCl2, 1 mM DTT, 30 °C, 1 h; labelled compound

T1 sequence (O84742 entry or part of it): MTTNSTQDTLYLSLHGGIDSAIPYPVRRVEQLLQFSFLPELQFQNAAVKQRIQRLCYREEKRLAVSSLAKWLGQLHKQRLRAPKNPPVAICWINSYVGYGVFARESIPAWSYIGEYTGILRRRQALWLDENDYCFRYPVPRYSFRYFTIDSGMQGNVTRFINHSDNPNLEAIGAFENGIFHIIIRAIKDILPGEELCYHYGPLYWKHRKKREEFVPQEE

## C[S+](CC[C@H](N)C(=O)O)C[C@H]1O[C@@H](n2cnc3c(N)ncnc32)[C@H](O)[C@@H]1O (stereo partly drawn) [SAM, S-adenosyl-L-methionine]
  in vitro methyltransferase assay, 14C autoradiography of SDS-PAGE: in vitro methyltransferase assays using GST-NUE purified from E. coli and mammalian histones
